Earlier results in paper PMC2874326 (Bioconjugate chemistry, 2010).

System: cells
Settings: relative to Tat and unmodified poly-arginine cell penetrating peptides

C14-βAla-(Arg)7-Cys(SH)-NH2 [MPAP]
enhancement of peptide entry into cells by myristoylation: several-fold
